Test results from ChEMBL document CHEMBL1128376, “Carbethoxylating agents as inhibitors of aldehyde dehydrogenase” (J Med Chem, 1995).

System: aldehyde dehydrogenase (Saccharomyces cerevisiae)
Assay: In vitro inhibition against yeast aldehyde dehydrogenase; IA means In active; call rule not given here

CCOC=O [ETHOXYCARBONYL GROUP]
IC50: Not Active
